Results from patent publication US20100120662A1, “Glucose uptake modulator and method for treating diabetes or diabetic complications” (POSTECH Foundation, priority 2005, published 2010).
Ends that are not written are not given here.

Experiments:
[1] = system: IR, IRS and Akt; assay: Phosphorylation of IR, IRS and Akt in C2C12 myotubules; assay type: cell-based
Experimental: (§1) UCN enhanced insulin-induced glucose uptake and phosphorylation of IR, IRS and Akt. Myotubules were incubated with 2 nM UCN and/or variant insulin dose (0-50 nm) for 1 min (Inserted immunoblot data). Phosphorylation of IRS and Akt was assessed by western blot analysis with anti-pIRS and anti-pAkt antibodies. Glucose uptake was determined as below.
(§2) C2C12 cells were maintained in DMEM, supplemented with 10% (v/v) FBS. The cells were grown at 37° C. in a humidified atmosphere of 5% CO2 and 95% air. For the differentiation of C2C12 cells, growing media was changed to DMEM, supplemented with 2% (v/v) ES and cultured for 7 days.
Immunoprecipitation and immunoblot was performed according to the method of EXAMPLE 8.

[2] = system: STZ-mouse; assay: Blood glucose in STZ mice after intravenous UCN and/or insulin; assay type: in vivo
Experimental: (§3) The inserted immunoblot data is about IR phosphorylation by UCN in skeletal muscle. Mice were injected (intravenously) with either vehicle (0.1% BSA in saline) or UCN (0.1-100 μM). Values are the mean±S.D. for four control and four UCN-treated mice. […] The inserted immunoblot data was about IR phosphorylation by treatment of UCN in skeletal muscle of STZ mouse. Mice were injected (intravenously) with vehicle (0.1% BSA in saline), UCN (0.1 μM) and/or insulin (1 nM). And plasma levels of glucose were measured during 45 min. Values are the mean±S.D. for six mice each group. *, P<0.05.
For preparing STZ-mouse, male Institute of Cancer Research (ICR) mice weighing 20-25 g, aged 8 weeks, were obtained from the Hyochang Science. STZ-induced diabetic mice were prepared by administering an intraperineal injection of STZ (Sigma Chemical, St. Louis, Mo.) (75 mg/kg) to male ICR mice after the animals were fasted for 1 day. And the next day had one more injection of STZ. Mice with plasma glucose concentrations ≧280 mg/dl were considered to have type 1 diabetes. All tests were carried out 3 days after the injection of STZ.

[3] = system: ICR mice; assay: Blood glucose in normal ICR mice after intravenous UCN; assay type: in vivo, mouse; settings: i.v.
Experimental: as §3
For prepare the normal test animal, male Institute of Cancer Research (ICR) mice weighing 20-25 g, aged 8 weeks, were obtained from the Hyochang Science were housed four to cage in a temperature- and light-controlled room (20-22° C.; 12-hrs light, 12-hrs dark cycle; lights on at 07:00 hr) and were provided with regular diet chow and water ad libitum. The laboratory procedures used conformed to the guidelines of the Korea Government Guide for the Care of Use of Laboratory Animals. In the in vivo study, after fasting overnight, mice were injected to intravenous vein with 0.1% BSA saline or UCN, then plasma glucose was measured on a time by glucose analyzer (model AGM-2100, allmedicus Inc., anyang, Korea)

[4] = system: C2C12 myotubules; assay: Glucose uptake in C2C12 myotubules (UCN); assay type: cell-based; settings: in the presence of UCN
Experimental: as §1, §2
After differentiation, cells were washed and incubated during 3 hrs with 2 ml Krebs-Ringer phosphate (KRP) containing 130 mM NaCl, 5 mM KCl, 1.3 mM CaCl2.2H2O, 1.3 mM MgSO4.7H2O, and 10 mM Na2HPO4.7H2O, pH 7.4. To determine the effect of UCN on glucose uptake, 10 min incubation in 1 ml of KRP at indicated conditions was carried out. The reaction was performed by adding a mixture of [^14C] 2-DG (1 μCi/ml) and non-radioactive 2-DG (final concentration of 20 mM) for 10 min. […] Cell-associated radioactivity was determined by lysing the cells in 1 N NaOH and followed by scintillation counting. Non-specific uptake was measured by incubating the cells with cytochalasin B (20 μM/ml). […]

[5] = system: insulin receptor (IR); assay: IR phosphorylation in mouse skeletal muscle; assay type: in vivo; settings: soleus muscle, 15 min after i.v. injection
Experimental: After fasting overnight, mice were injected iv with agonist. After 15 min, mice were killed by soleus muscles were rapidly excised and were immediately frozen in liquid nitrogen. Lysates were prepared by homogenizing the tissues in lysis buffer (50 mM HEPES pH 7.5, 150 mM NaCl, 1% Triton X-100, 1 mM EDTA, 10% glycerol) containing protease inhibitors (0.5 mM PMSF, 1 μg/ml leupeptin and 5 μg/ml aprotinin) and phosphatase inhibitors (30 mM NaF, 1 mM Na3VO4 and 30 mM Na4O7P2). Debris was removed by centrifugation at 14,000 rpm for 10 min at 4° C. Immunoprecipitation and Western blots were performed as previously described.

[6] = system: insulin receptor (IR); assay: IR autophosphorylation in hIRcB cells; assay type: cell-based, human
Experimental: FIG. 12A shown a comparison of insulin sensitizing effect among CRF family which was obtained by incubating cells with 1 μM CRF family and/or 2 nM insulin or with medium alone for 1 min. […] FIG. 12B was obtained by incubating cells with 2 nM insulin and variant dose of UCN (from 2 nM to 1 μM) for 1 min. FIG. 12C was obtained by incubating cells 100 nM UCN and variant dose of insulin for 1 min. Phosphorlyation of IR was assessed by western blotting with anti-pTyr antibodies. FIG. 13D was obtained by incubating cells with 100 nM UCN and/or 10 nM insulin for 0, 2, 10, 30, and 60 min, and then assessing the phosphorlyation of IR by western blotting with anti-pIR antibodies. Quantization of IR autophosphorylation was measured with image gauge software (Fuji film). The values are the mean±S.E. for three experiments. *, P<0.05
hIRcB cells were maintained in DMEM, supplemented with 10% (v/v) FBS. The cells were grown at 37° C. in a humidified atmosphere of 5% CO2 and 95% air.
After treatment of ligands as indicated time and dose, the cells were washed with cold PBS and lysed with lysis buffer (50 mM HEPES pH 7.5, 150 mM NaCl, 1%
Triton X-100, 1 mM EDTA, 10% glycerol) containing protease inhibitors (0.5 mM PMSF, 1 μg/ml leupeptin and 5 μg/ml aprotinin) and phosphatase inhibitors (30 mM NaF, 1 mM Na3VO4 and 30 mM Na4O7P2). The cell lysates were incubated for 1 hr at 4° C. After centrifugation (14,000×g for 15 min), equal amounts of soluble extract were incubated, for 4 hrs, with 5 μg of anti-IR antibody and 30 μl of resin volume of immobilized protein A. For gel electrophoresis, the precipitates were dissolved in Laemmli sample buffer. The sample was separated by SDS-PAGE and transferred to a nitrocellulose membrane (Schleicher and Schuell, BA85). Blocking was performed with TTBS buffer (10 mM Tris/HCl, pH 7.5, 150 mM NaCl, and 0.05% Tween 20) containing 5% skimmed milk powder. The membrane was probed with primary for 3 hrs at room temperature. Subsequently the immunoblot was washed and incubated with horseradish peroxidase-linked secondary antibody for 1 hr at room temperature, rinsed four times in TTBS buffer, and developed with horseradish peroxidase-dependent chemiluminescence reagents (Amersham International, United Kingdom).

Substance: urocortin (DNPSLSIDLTFHLLRTLLELARTQSQRERAEQNRIIFDSV; ends and bridges not checked; UniProt P55089 83-122, looked up) [UCN, a 40 amino acid peptide as a member of the corticotrophin release factor (CRF) family]
- insulin-induced phosphorylation of IR, IRS and Akt ([1]; 2 nM UCN and/or insulin 0-50 nm, 1 min): enhanced
- insulin-induced phosphorylation of IR ([1]; in the presence of UCN, C2C12 myotubules): enhanced
- change of blood glucose level, UCN alone ([2]; UCN (0.1 μM) i.v., 45 min): no effect on the change of blood glucose level
- blood glucose level, UCN co-injected with insulin ([2]; UCN co-injected with inactive concentration of insulin (1 nM)): significantly decreased
- blood glucose level, UCN alone ([3]; 0.1 μM UCN): down-regulated the blood glucose level
- blood glucose level, UCN alone ([3]; from 100 pM up): enhanced blood glucose level
- insulin-stimulated glucose uptake [4]: significantly increased
- insulin-induced IR phosphorylation in mouse skeletal muscle [5]: significantly sensitized insulin-induced IR phosphorylation
- insulin-mediated IR phosphorylation ([6]; 1 μM CRF family peptide with 2 nM insulin, 1 min, hIRcB cells): potentate insulin-mediated IR phosphorylation
- dose and time dependence of insulin sensitizing effect ([6]; UCN 2 nM to 1 μM with 2 nM insulin, 100 nM UCN with 10 nM insulin 0-60 min): increased in dose (12B,12C) and time (12D) dependent manner
- potency in potentiating insulin-mediated IR phosphorylation compared with CRF ([6]; hIRcB cells): more potent
- IR phosphorylation by peptide alone ([6]; without insulin, hIRcB cells): no effect on IR phosphorylation
